Source: US5432160A, “Nutrient composition” (Kyowa Hakko Kohyo Co., Ltd., priority 1993, dated 1995)
Peptide text beside a SMILES is read from it.

Tests used:
Assay type in all cases: physicochemical
[1] = Heat stability: residual rate after heat sterilization in an autoclave; conditions: aqueous 10 mM solution, pH 6.5, autoclave 120° C.
Description: Each of aqueous 10 mM solutions of β-alanyl-L-glutamine, L-alanyl-L-glutamine (control) and L-glutamine (control) adjusted at pH 6.5 with sodium hydroxide was heated in an autoclave at 120° C. for a period of 20 minutes or 120 minutes. The residual rate of each of the compounds after heating was determined.

[2] = Solubility: maximum amount dissolved in 1 liter of water; conditions: 25° C.
Description: Each of β-alanyl-L-glutamine, L-alanyl-L-glutamine (control) and L-glutamine (control) was dissolved into 1 liter of water (25° C.). Each of their maximum amounts dissolved in the water was determined.

[3] = Heat stability: residual rate after heat sterilization in an autoclave; conditions: aqueous 10 mM solution, pH 6.5, autoclave 120° C., 20 minutes

| SMILES | Residual Rate after Heat Sterilization 20 min. [1] | Residual Rate after Heat Sterilization 20 min. ([1]; listed as L-alanyl-L-glutamine) | Residual Rate after Heat Sterilization 120 min. [1] | Amount Dissolved in 1 liter of Water [2] | Share decomposed after heating [3] | Residual Rate after Heat Sterilization 120 min. ([1]; listed as L-glutamine) | Residual Rate after Heat Sterilization 20 min. ([1]; listed as β-alanyl-L-glutamine) | Amount Dissolved in 1 liter of Water ([2]; listed as β-alanyl-L-glutamine) |
| --- | --- | --- | --- | --- | --- | --- | --- | --- |
| C[C@H](N)C(=O)N[C@@H](CCC(N)=O)C(=O)O [L-Alanyl-L-glutamine, L-alanyl-L-glutamine] (H-Ala-Gln-OH) | 98% | partly decomposed | 91% | 599 g | – | – | – | – |
| NC(=O)CC[C@H](N)C(=O)O [L-Glutamine, L-glutamine] | 9% | – | 0% | 43 g | about 90% | decomposed completely | – | – |
| NCCC(=O)N[C@@H](CCC(N)=O)C(=O)O [β-Alanyl-L-glutamine, β-alanyl-L-glutamine] | 100% | – | 99% | 952 g | – | – | remained entirely without being decomposed | highest solubility |
